Assay results taken from patent publication US20230293473A1, “THERAPEUTIC DRUG FOR DISEASE CAUSED BY INTESTINAL IMMUNE DISORDER” (KEIO UNIVERSITY, priority 2020, published 2023).

What was measured:
HVx mice = assay: In vivo administration of bethanechol, GTS-21 or MLA to HVx mice; colonic APC and Treg phenotypes
Procedure: Bilateral or unilateral (left or right) subdiaphragmatic vagotomy was performed as previously reported (FIGS. 5c and 5d)^52. A midline incision was made to provide wide exposure of the upper abdominal organ in male mice anesthetized with the combination of medetomidine, midazolam, and butorphanol. The bilateral subdiaphragmatic trunks of vagal nerves along the esophagus were exposed and cut. In the sham operation group, these vagal trunks were exposed but not cut. Selective hepatic vagotomy (HVx) was performed as described (FIG. 7)^25. The ventral subdiaphragmatic vagal trunk was exposed as described above under anesthesia. […]
FIG. 3 The liver-brain-gut axis regulates colonic Treg homeostasis through muscarinic signaling in APC. a-d, WT and mAChR TKO mice were subjected to Sham or HVx. e, WT and mAchR TKO mice were subjected to Sham or HVx and injected additionally treated with bethanechol (BETH; i.p. 300 μg/day) every day. Phenotypes of colonic immune cell were analyzed at day 2 after surgery (n=5/group). a, Frequency of ALDH^+ cells among MHC-II^+ colonic APCs. […] Quantification (right panel). b, Aldh1a1 and Aldh1a2 mRNA expression in colonic APC. c, e, Frequency of Foxp3^+ cells among CD4^+ cells in the colon. d, Frequency of RORγt^+ cells among colonic Foxp3^+ Tregs. […]

[1] = tested on: hepatic vagal sensory afferents; assay: Selective hepatic vagal afferent blockade by perivagal application of capsaicin; colonic Treg and APC analysis; assay type: in vivo, mice; conditions: perivagal capsaicin 10 mg/ml, 30 minutes; day 2
Procedure: The hepatic branch of the vagal trunk was freed from the surrounding tissues by paraffin paper and then wrapped for 30 minutes with cotton bud soaked with vehicle (Tween 80: olive oil=1:9) alone or 10 mg/ml capsaicin dissolved in the vehicle solution. The cotton string was removed 30 minutes later and the abdominal incision was closed^28. Aldehyde dehydrogenase (ALDH) activity was determined using ALDEFLUOR staining kit according to the manufacturer's protocol. In brief, cells were suspended at a concentration of 10^6 cells/ml in ALDEFLUOR assay buffer containing activated ALDEFLUOR substrate (final concentration of 1.5 μM) with or without the ALDH inhibitor diethylaminobenzaldehyde (DEAB) (final concentration of 15 μM) and incubated at 37° C. for 30 minutes. […] Phenotypic analysis of T cell and APC in colon was performed at day 2 after application of capsaicin (c, d, n=16/group; e, f, n=8/group). a, b, Representative fluorescence images of TRPV1 (red) and DAPI (blue) in NG (a) and Th4-DRG (b). […] Quantification (right panel). d, Frequency of RORγt^+ cells among colonic Foxp3^+ Tregs. […] TRPV1^+ nerves in spinal cord (Th4-7 and Th13) and colonic immune cells were analyzed at day 7 after administration. g, Fluorescent immunohistochemistry of TRPV1^+ neuron in spinal cord (bar: 200 μm). […]

[2] = tested on: common hepatic branch of the vagus nerve; assay: pERK immunostaining in nodose ganglion after capsaicin deafferentation of the common hepatic branch of the vagus nerve; assay type: in vivo, mice
Procedure: The hepatic branch of the vagal trunk was freed from the surrounding tissues by paraffin paper and then wrapped for 30 minutes with cotton bud soaked with vehicle (Tween 80: olive oil=1:9) alone or 10 mg/ml capsaicin dissolved in the vehicle solution. The cotton string was removed 30 minutes later and the abdominal incision was closed^28. pEKR1/2 and c-Fos expression were analyzed immunohistochemically as reported 1. DSS-treated mice were transcardially perfused with PBS including 4% paraformaldehyde and 0.2% picric acid under anesthesia. The nodose ganglions and brains were collected, post-fixed in the same fixative for 2 hours to overnight at 4° C. and then incubated in phosphate buffer containing 30% sucrose for 48 hours. Longitudinal sections (8 μm) of NGs were cut with 48 μm intervals using a precision cryostat (Leica Microsystems, IL). Coronal sections (40 μm) of hindbrain were cut with 120 μm intervals using a freezing microtome. Rabbit polyclonal antibody to pERK1/2 (1/500) and Alexa 488-conjugated goat anti-rabbit IgG (1/500) were used. Fluorescence images were acquired with BX50 microscope and DP50 digital camera (Olympus). […] Neurons immunoreactive to pERK1/2 and c-Fos in medial NTS were counted. […] Representative fluorescence images of Alexa Fluor 488^+ neuron (green) and DAPI (blue) in NG at 1 week after injection of WGA in liver (c) and quantification (d). […]

colonic APCs = assay: In vitro Treg induction assay: naive CD4+ cells with colonic APCs in the presence of muscarine; assay type: cell-based; conditions: colonic APCs from WT mice precultured with muscarine
Procedure: Naive CD4^+ cells were isolated from spleen in WT mice using naive CD4^+ T cell isolation kit. Naive CD4^+ cells (1×10^5) were cultured in RPMI-1640 medium supplemented with 10% FBS, 2 mM glutamine, 100 U/ml penicillin, 100 µg/ml streptomycin, and 55 μM 2-mercaptoethanol in 96 well plate.
a, Three-dimensional reconstruction of CX3CR1^+ APC (green) and enteric neurons (purple) in colon in mice. b, Three-dimensional reconstruction of MHCII^+ APC (green), enteric Tuj^+ neurons (purple), and Foxp3^+ Tregs (yellow). c, d, Anatomical diagram (c) and operative field (d) for subdiaphragmatic truncal vagotomy. e, f, Colonic T cell phenotypes in mice after VGx surgery. […] Quantification (n=6/group). […]

CC(C[N+](C)(C)C)OC(N)=O (stereo not drawn) [bethanechol]
frequency of pTregs (HVx mice; HVx WT mice, BETH i.p. 300 μg/day): increased | Aldh1a1 and Aldh1a2 expression in colonic APCs (HVx mice; HVx mice compared with sham-operated mice, BETH i.p. 300 μg/day for 2 days): restored

COc1cc(CNC(=O)CCCC/C=C/C(C)C)ccc1O [capsaicin]
aldehyde dehydrogenase activity in APCs [1]: reduced | colonic Treg numbers [1]: reduced | number of pERK positive cells in the left NG [2]: significantly reduced

C[C@@H]1O[C@H](C[N+](C)(C)C)C[C@H]1O [muscarine]
generation of Foxp3+ Tregs (colonic APCs): enhanced
